Reference: patent US20230060425A1, “FUSED BICYCLIC HETEROCYCLE DERIVATIVES AS PESTICIDES” (Bayer Aktiengesellschaft, priority 2019, published 2023)
Read-outs that look alike come from different tables or passages of the source.

Key:
Assay type in all cases: in vivo
Myzus persicae [1] = experiment: Myzus persicae oral test; details: 120 h, application rate 4 ppm, after 5 days, read-out: efficacy
Procedure, shortened: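 Aphid feeding test: compound dissolved in acetone, diluted with water and mixed with IPL41 insect medium plus sugar, offered through parafilm to a mixed population of green peach aphids. Mortality scored after 5 days as % efficacy (100% = all aphids dead, 0% = none dead).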

Heliothis armigera = Heliothis armigera test (HELIAR S); details: Helicoverpa armigera, 6 dai, read-out: % Efficacy
Description: Heliothis armigera Test (HELIAR S)
(§1) Solvent: 14 parts by weight of dimethylformamide
(§2) Emulsifier: 2 parts by weight of alkylaryl polyglycol ether
(§3) To produce a suitable active compound formulation, 1 part by weight of active compound is dissolved with the stated parts by weight of solvent and emulsifier and made up to the desired concentration with water. To produce further test concentrations, water is used for dilution. In the event that addition of ammonium salts or/and penetrants (rapeseed oil methyl ester) is required, these are each pipetted in at a concentration of 1000 ppm after the finished formulation solution has been diluted.
Cotton plants (Gossypium hirsutum) are sprayed with an active compound formulation of the desired concentration and, in each case after 12 and 19 days, populated with 5 caterpillars (L2) of the cotton bollworm (Heliothis armigera).
The kill is determined 6 days after the infection. 100% means that all the caterpillars have been killed and 0% means that none of the caterpillars have been killed.

Ctenocephalides felis = Ctenocephalides felis in vitro contact test with adult cat fleas; details: application rate 5 μg/cm^2 (=500 g/ha); after 48 h; fleas dead or moribund
Description: Ctenocephalides felis—In Vitro Contact Tests with Adult Cat Fleas
For the coating of the test tubes, 9 mg of active compound are first dissolved in 1 ml of acetone p.a. and then diluted to the desired concentration with acetone p.a. 250 μl of the solution are distributed homogeneously on the inner walls and the base of a 25 ml glass tube by turning and rocking on an orbital shaker (rocking rotation at 30 rpm for 2 h). With 900 ppm of active compound solution and internal surface area 44.7 cm^2, given homogeneous distribution, an area-based dose of 5 μg/cm^2 is achieved.
After the solvent has evaporated off, the tubes are populated with 5-10 adult cat fleas (Ctenocephalides felis), sealed with a perforated plastic lid and incubated in a horizontal position at room temperature and ambient humidity. After 48 h, efficacy is determined. To this end, the tubes are stood upright and the fleas are knocked to the base of the tube. Fleas which remain motionless at the base or move in an uncoordinated manner are considered to be dead or moribund.
100% efficacy means that all the fleas were dead or moribund. 0% efficacy means that no fleas were harmed.

Spodoptera frugiperda [2] = experiment: Spodoptera frugiperda spray test (SPODFR), comparative; details: 168 h, 0.8 g of ai/ha, 7 dat, read-out: % Efficacy
Description: Spodoptera frugiperda—Spray Test (SPODFR)
(§4) Solvent: • 78.0 parts by weight of acetone • 1.5 parts by weight of dimethylformamide
(§5) Emulsifier: alkylaryl polyglycol ether
To produce a suitable active compound preparation, 1 part by weight of active compound is dissolved using the stated parts by weight of solvent and made up with water containing an emulsifier concentration of 1000 ppm until the desired concentration is attained. To produce further test concentrations, the formulation is diluted with emulsifier-containing water.
Leaf discs of maize (Zea mays) are sprayed with an active compound formulation of the desired concentration and, after drying, populated with caterpillars of the armyworm (Spodoptera frugiperda).
After the desired period of time, the efficacy in % is determined. 100% means that all the caterpillars have been killed; 0% means that no caterpillar has been killed.

Phaedon cochleariae = Phaedon cochleariae test on cabbage plants (PHAECO S); details: 6 dai, read-out: % Efficacy
Description: Phaedon cochleariae Test (PHAECO S)
as §1, §2, §3
Cabbage plants (Brassica oleracea var. sabauda) are sprayed with an active compound formulation of the desired concentration and populated with 10 L2 larvae of the mustard beetle (Phaedon cochleariae).
After the desired time, the kill in % is determined. 100% means that all the larvae have been killed and 0% means that none of the larvae have been killed.

Myzus persicae [3] = experiment: Myzus persicae spray test; details: foliar, 120 h, application rate 100 g/ha, Chinese cabbage leaf discs, after 5 days, read-out: efficacy
Procedure, shortened: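 Chinese cabbage leaf discs infested with all stages of Myzus persicae were sprayed with compound in acetone/DMF, diluted in water containing 1000 ppm emulsifier. Efficacy in % assessed after 5 days: 100% all aphids killed, 0% none killed.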

Spodoptera frugiperda [4] = experiment: Spodoptera frugiperda spray test; details: foliar, 168 h, application rate 100 g/ha, maize leaf discs, after 7 days, read-out: efficacy
Description: Spodoptera frugiperda—Spray Test
as §4, §5
To produce further test concentrations, the formulation is diluted with emulsifier-containing water.
After 7 days, the efficacy in % is determined. 100% means that all the caterpillars have been killed; 0% means that no caterpillar has been killed.

SMILES: CCS(=O)(=O)c1c(-c2nc3cc(C(F)(F)F)cnc3n2C)ncc2cc(Br)ccc12 [Example I-037, 7-Bromo-4-ethylsulfonyl-3-[3-methyl-6-(trifluoromethyl)imidazo[4,5-b]pyridin-2-yl]isoquinoline]
- pest or weed control at 4 ppm (Myzus persicae [1]): 100%
- Emax at 0.16 ppm (Heliothis armigera; 288 h, infection 12 dat): 80%
- Emax at 0.16 ppm (Heliothis armigera; 456 h, infection 19 dat): 70%
- efficacy (Ctenocephalides felis): 100%
- Emax at 0.8 g/ha (Spodoptera frugiperda [2]): 100%
- Emax at 0.16 ppm (Phaedon cochleariae; 120 h, infection 5 dat): 80%
- Emax at 0.16 ppm (Phaedon cochleariae; 288 h, infection 12 dat): 60%
- Emax at 0.8 ppm (Phaedon cochleariae; 288 h, 0.8 ppm, infection 12 dat): 100%
- pest or weed control at 100 g/ha (Myzus persicae [3]): 100%
- pest or weed control at 100 g/ha (Spodoptera frugiperda [4]): 100%
